From publication PMC10985906, “Anticholinesterase activities of novel isoindolin-1,3-dione-based acetohydrazide derivatives: design, synthesis, biological evaluation, molecular dynamic study” (BMC Chemistry, 2024)
Where two headings read alike, the source gives them in different places.

Legend:
BChE [1] = biological target: T1, BChE (Homo sapiens, UniProt P06276); settings: previously reported; cited from earlier work
Aß-aggregation = settings: at 10 µM; previously reported; cited from earlier work
hBACE-1 = settings: at 50 µM; previously reported; cited from earlier work
BChE [2] = biological target: T1, BChE; settings: at 10 µM; previously reported; cited from earlier work
AChE [3] = biological target: T2, AChE (Homo sapiens, UniProt P22303); test: biochemical; settings: mean ± SD; modified Ellman, 37 °C, pH 7.4
BChE [4] = biological target: T1, BChE; test: biochemical; settings: mean ± SD; modified Ellman, 37 °C, pH 7.4
AChE [5] = biological target: T2, AChE; test: Enzyme kinetics against AChE (Lineweaver–Burk); format: biochemical
Experimental: (§1) The ChE inhibition reactions were determined by Ellman’s assay at different concentrations of 8a and 8g. […]. The inhibition constant Ki was calculated by the plot of slopes versus the corresponding concentrations of the inhibitors.

BChE [6] = biological target: T1, BChE; test: Enzyme kinetics against BChE (Lineweaver–Burk); format: biochemical
Experimental: as §1

[7] = secondary plot of Lineweaver–Burk plots

T1 sequence (P06276 29-602): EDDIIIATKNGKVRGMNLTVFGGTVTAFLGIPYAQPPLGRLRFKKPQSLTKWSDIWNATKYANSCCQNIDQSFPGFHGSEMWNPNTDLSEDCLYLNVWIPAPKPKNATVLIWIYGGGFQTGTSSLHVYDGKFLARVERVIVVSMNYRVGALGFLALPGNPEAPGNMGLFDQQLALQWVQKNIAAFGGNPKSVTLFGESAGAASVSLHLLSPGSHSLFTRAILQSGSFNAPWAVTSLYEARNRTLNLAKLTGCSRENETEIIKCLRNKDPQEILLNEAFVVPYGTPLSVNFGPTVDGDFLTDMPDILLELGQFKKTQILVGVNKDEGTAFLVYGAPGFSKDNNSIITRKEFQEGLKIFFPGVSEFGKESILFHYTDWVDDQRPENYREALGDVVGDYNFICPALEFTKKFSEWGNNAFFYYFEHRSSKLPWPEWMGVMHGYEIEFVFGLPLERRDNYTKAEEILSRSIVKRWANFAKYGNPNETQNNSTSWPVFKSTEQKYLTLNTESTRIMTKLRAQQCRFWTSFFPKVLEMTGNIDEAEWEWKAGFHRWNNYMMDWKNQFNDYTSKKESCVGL
T2 sequence (P22303 32-614): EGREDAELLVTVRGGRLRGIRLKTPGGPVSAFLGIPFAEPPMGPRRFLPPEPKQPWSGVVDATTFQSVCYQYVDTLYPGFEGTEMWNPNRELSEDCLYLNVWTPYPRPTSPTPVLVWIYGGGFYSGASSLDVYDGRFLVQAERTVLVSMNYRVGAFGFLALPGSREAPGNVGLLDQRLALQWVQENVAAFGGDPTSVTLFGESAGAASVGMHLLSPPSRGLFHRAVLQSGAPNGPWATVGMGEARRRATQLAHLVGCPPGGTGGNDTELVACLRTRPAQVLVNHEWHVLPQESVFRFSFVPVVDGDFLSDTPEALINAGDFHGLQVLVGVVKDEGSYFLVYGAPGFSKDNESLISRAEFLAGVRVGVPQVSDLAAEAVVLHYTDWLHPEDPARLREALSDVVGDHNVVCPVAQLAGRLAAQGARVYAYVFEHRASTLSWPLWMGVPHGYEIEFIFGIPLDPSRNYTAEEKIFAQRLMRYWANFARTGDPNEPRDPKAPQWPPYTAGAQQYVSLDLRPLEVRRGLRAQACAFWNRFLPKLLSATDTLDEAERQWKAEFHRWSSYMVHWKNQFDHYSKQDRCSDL

| Molecule | IC50 (AChE [3]) | IC50 (BChE [4]) | also measured |
| --- | --- | --- | --- |
| CN(C)C(=O)Oc1cccc([N+](C)(C)C)c1 [neostigmine] | – | – | IC50 (BChE [1]): 84 nM |
| Oc1ccc(/C=C/c2cc(O)cc(O)c2)cc1 [resveratrol] | – | – | Aß-aggregation inhibition (Aß-aggregation): 78.5% ± 5.2 |
| 2-(benzylamino-2-hydroxyalkyl)isoindoline-1,3-dione | – | – | hBACE-1 inhibition (hBACE-1): 43.7%; Aß-aggregation inhibition (Aß-aggregation): 24.9%; BChE inhibition (BChE [2]): 14.1% ± 5.8 |
| CCN(CC(=O)NN=Cc1ccccc1OCCCN1C(=O)c2ccccc2C1=O)Cc1ccccc1 [Compound 8b, 2-(benzyl(ethyl)amino)-Nʹ-(2-(3-(1,3-dioxoisoindolin-2-yl)propoxy)benzylidene)acetohydrazide] | 180 ± 10 nM | 26800 ± 800 nM | – |
| CN(CC(=O)NN=Cc1ccccc1OCCCN1C(=O)c2ccccc2C1=O)Cc1ccccc1 [Compound 8a, 2-(benzyl(methyl)amino)-Nʹ-(2-(3-(1,3-dioxoisoindolin-2-yl)propoxy)benzylidene)acetohydrazide] | 110 ± 50 nM | 30200 ± 2800 nM | mode of inhibition against AChE (AChE [5]; Lineweaver–Burk plot): competitive; Ki (AChE [5]; [7]): 88.6 nM |
| CCN(CC(=O)NN=Cc1ccc(OC)c(OCCCN2C(=O)c3ccccc3C2=O)c1)Cc1ccccc1 [Compound 8e, 2-(benzyl(ethyl)amino)-Nʹ-(3-(3-(1,3-dioxoisoindolin-2-yl)propoxy)-4-methoxybenzylidene)acetohydrazide] | 210 ± 30 nM | 14700 ± 200 nM | – |
| CCN(CC(=O)NN=Cc1cccc(OCCCN2C(=O)c3ccccc3C2=O)c1)Cc1ccccc1 [Compound 8d, 2-(benzyl(ethyl)amino)-N'-(3-(3-(1,3-dioxoisoindolin-2-yl)propoxy)benzylidene)acetohydrazide] | 160 ± 30 nM | 11800 ± 500 nM | – |
| CCN(CC(=O)NN=Cc1ccc(OCCCN2C(=O)c3ccccc3C2=O)cc1)Cc1ccccc1 [Compound 8g, 2-(benzyl(ethyl)amino)-Nʹ-(4-(3-(1,3-dioxoisoindolin-2-yl)propoxy)benzylidene)acetohydrazide] | 860 ± 20 nM | 5700 ± 200 nM | mode of inhibition against BChE (BChE [6]; Lineweaver–Burk plot): competitive; Ki (BChE [6]; [7]): 3650 nM |
| CCN(CC(=O)NN=Cc1cc([N+](=O)[O-])ccc1OCCCN1C(=O)c2ccccc2C1=O)Cc1ccccc1 [Compound 8c, 2-(benzyl(ethyl)amino)-Nʹ-(2-(3-(1,3-dioxoisoindolin-2-yl)propoxy)-5-nitrobenzylidene)acetohydrazide] | 160 ± 40 nM | 21800 ± 1300 nM | – |
| CCN(CC(=O)NN=Cc1ccc(OCCCN2C(=O)c3ccccc3C2=O)c(OC)c1)Cc1ccccc1 [Compound 8h, 2-(benzyl(ethyl)amino)-Nʹ-(4-(3-(1,3-dioxoisoindolin-2-yl)propoxy)-3-methoxybenzylidene)acetohydrazide] | 170 ± 60 nM | 13200 ± 1400 nM | – |
| CN(CC(=O)NN=Cc1ccc(OCCCN2C(=O)c3ccccc3C2=O)cc1)Cc1ccccc1 [Compound 8f, 2-(benzyl(methyl)amino)-Nʹ-(4-(3-(1,3-dioxoisoindolin-2-yl)propoxy)benzylidene)acetohydrazide] | 320 ± 20 nM | 15700 ± 1200 nM | – |
